Source: patent US12414935B2, “Compounds and methods for the treatment of parasitic diseases” (WASHINGTON UNIVERSITY, priority 2019, dated 2025)

Experiments:
[1] = test system: C. parvum; test: C. parvum in vitro EC50 assay in HCT-8 cells; type: cell-based; settings: Cryptosporidium parvum, HCT8 cells, 24 hr, Mean +/- S.D., N = 3, 9 pt curve
Experimental: (§1) In vitro assays measuring the EC50 value for C. parvum infection may be run to determine the efficacy of the compounds. For example, human ileocecal adenocarcinoma (HCT-8) cells can be obtained from ATCC and maintained in T-75 tissue culture flasks with RPMI 1640 medium with HEPES, sodium pyruvate (1 mM), and L-glutamine (ATCC) supplemented with 10% horse serum (ATCC) and 120 U/ml penicillin and 120 μg/ml streptomycin. Cells can be plated into 384-well, tissue culture-treated, black-walled, clearbottom microwell plates (BD Falcon) at a density of 8,850 cells/well and allowed to grow to confluence. The cells may then be inoculated with 5.5×10^3 primed C. parvum oocysts (Bunchgrass Farms, Deary, ID) suspended in inoculation medium (RPMI 1640 without horse serum). Oocysts may be primed for excystation by following a previously described protocol (J. Eukaryot. Microbiol. 46:56S-57S). Briefly, oocysts can be treated for 10 min with 10 mM HCl at 37° C., centrifuged, and treated with a 2 mM solution of sodium taurocholate (Sigma-Aldrich) in phosphate-buffered saline (PBS) with Ca^2+ and Mg^2+. The suspension can be incubated for 10 min at 16° C. and then diluted in inoculation medium and added to each well. Infected cells are incubated at 37° C. for 3 h, at which point an equal volume of growth medium containing 20% horse serum (total serum concentration of 10%) is produced. Compounds are diluted and assayed at fixed doses (e.g., 0.12, 0.37, 1.1, 3.3, and 10 μM, with each concentration, n=14) for the generation of EC50 curves. In the case of final EC50 curves, three wells are left uninfected but treated with each of the corresponding concentrations of the compound to assess for background staining. All curves are generated using the log[inhibitor] versus response variable slope equation in GraphPad Prism, with the bottom constraint set equal to 0.
(§2) Such assays were prepared on HTC-8 cells and ALI. Table 2 illustrates measured EC50 at various time points.

[2] = test system: C. parvum; test: C. parvum in vitro EC50 assay in ALI culture; type: cell-based; settings: Cryptosporidium parvum, 48 hr, Mean +/- S.D., N = 2, 5 pt curve
Experimental: as §1, §2
Briefly, i3T3 cells were plated in CM media. Spheroids were plated on the cells. […]

| SMILES | EC50 [1] | EC50 [2] |
| --- | --- | --- |
| COc1ccc(NC(=O)N2CCCCN3[C@H](CN(C)S(C)(=O)=O)[C@H](c4ccc(C#Cc5ccccc5)cc4)[C@@H]3C2)cc1 [Compound 1, (8R,9R,10S)-N-(4-methoxyphenyl)-10-((N-methylmethylsulfonamido)methyl)-9-(4-(phenylethynyl)phenyl)-1,6-diazabicyclo[6.2.0]decane-6-carboxamide] | 11 ± 3 nM | 28 ± 2 nM |
| COc1ccc(NC(=O)N2CCCCN3[C@H](CN(C)C)[C@H](c4ccc(C#Cc5ccccc5)cc4)[C@@H]3C2)cc1 [Compound 2, (8R,9S,10S)-10-((dimethylamino)methyl)-N-(4-methoxyphenyl)-9-(4-(phenylethynyl)phenyl)-1,6-diazabicyclo[6.2.0]decane-6-carboxamide] | 33 ± 9 nM | 113 ± 15 nM |
| CC(=O)Oc1ccccc1C(=O)Nc1ncc([N+](=O)[O-])s1 [Nitazoxanide, reference compound] | 2190 ± 378 nM | 25900 ± 4140 nM |
